Tested on: human bone marrow-derived MSCs
Experiment: Real-time PCR of cardiac-specific marker genes after MSCs are treated with HDAC inhibitors
Format: cell-based
Conditions: 24 hours, TSA 0.5 μM, VPA 3 mM, AC 1 and 3 μM, vs vehicle, FIG. 1
Method: First, MSCs prepared in Example 1 were cultured for one day in a 6-well culture plate containing HIGH glucose/DMEM (4 mM L-glutamine, 4500 mg/L glucose, sodium pyruvate, 10% FBS, 100 U/ml penicillin, 100 μg/ml streptomycin), and then treated with TSA (0.5 μM), VPA (3 mM), and AC (1 and 3 μM) for 24 hours.
Afterward, the cell culture medium was removed from each sample, washed with PBS once, and homogenized with TRIzol for 10 minutes at room temperature, followed by centrifugation after the addition of chloroform. A supernatant obtained by centrifugation was harvested to purify total RNA, and cDNA was synthesized using a reverse transcriptase (MMLV) to be used as a template, followed by real-time PCR performed using the QuantiTect SYBR Green PCR kit. Accordingly, expression levels of the cardiac-specific marker genes (GATA4, Nkx2.5 and cTnI) were confirmed.

SMILES | mRNA expression of GATA4 | mRNA expression of Nkx2.5 | mRNA expression of cTnI
CC(/C=C/C(=O)NO)=C\[C@@H](C)C(=O)c1ccc(N(C)C)cc1 [TSA, trichostatin A] | no specific effect | no specific effect | had significance
CCCC(CCC)C(=O)O [VPA, valproic acid] | promoted | – | promoted
